Test results: ChEMBL document CHEMBL1145547, “Achiral, selective CCK2 receptor antagonists based on a 1,3,5-benzotriazepine-2,4-dione template” (Bioorg Med Chem, 2008)
Active and inactive are the calls of the source. The calls are words filed in the database; no cut-off is given here.

Legend:
[1] = target: T1, Gastrin/cholecystokinin type B receptor (Homo sapiens, UniProt P32239); experiment: Displacement of [125I]BH-CCK-8S from human recombinant CCK2 receptor expressed in NIH3T3 cells; format: cell-based
T1 sequence (P32239 whole entry): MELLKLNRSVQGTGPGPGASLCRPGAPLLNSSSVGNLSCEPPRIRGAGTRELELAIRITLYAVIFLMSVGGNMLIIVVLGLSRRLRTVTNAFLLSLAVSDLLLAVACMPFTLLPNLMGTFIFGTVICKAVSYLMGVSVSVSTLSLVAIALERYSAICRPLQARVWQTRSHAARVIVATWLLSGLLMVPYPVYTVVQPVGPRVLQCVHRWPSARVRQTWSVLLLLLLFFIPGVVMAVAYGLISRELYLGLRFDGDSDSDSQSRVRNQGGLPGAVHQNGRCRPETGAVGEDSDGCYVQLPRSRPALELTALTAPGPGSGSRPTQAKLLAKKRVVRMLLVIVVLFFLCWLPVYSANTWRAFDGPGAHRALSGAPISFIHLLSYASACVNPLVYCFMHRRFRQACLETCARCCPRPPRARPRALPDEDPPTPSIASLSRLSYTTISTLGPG

[2] = target: T2, Cholecystokinin receptor type A (Homo sapiens, UniProt P32238); experiment: Displacement of [3H]L-364718 from human recombinant CCK1 receptor expressed in CHO-K1 cells; format: cell-based
T2 sequence (P32238 whole entry): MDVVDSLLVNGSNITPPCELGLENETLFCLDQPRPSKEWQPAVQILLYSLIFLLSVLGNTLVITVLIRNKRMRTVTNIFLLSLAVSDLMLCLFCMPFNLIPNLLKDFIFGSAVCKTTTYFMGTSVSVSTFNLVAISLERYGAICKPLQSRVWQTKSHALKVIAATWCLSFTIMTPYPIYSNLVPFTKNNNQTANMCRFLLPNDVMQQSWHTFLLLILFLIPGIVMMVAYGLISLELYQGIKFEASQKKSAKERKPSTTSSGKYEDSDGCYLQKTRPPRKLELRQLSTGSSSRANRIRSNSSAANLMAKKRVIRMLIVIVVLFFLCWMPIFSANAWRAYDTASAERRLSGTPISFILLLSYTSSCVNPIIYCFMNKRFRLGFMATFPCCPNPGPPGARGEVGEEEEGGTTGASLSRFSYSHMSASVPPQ

[3] = target: T3, Cholecystokinin receptor type A (Cavia porcellus) (UniProt Q63931); experiment: Agonist activity at CCK1 receptor assessed as stimulation of contraction in guinea pig gallbladder at 30 uM relative to CCK8; format: functional
T3 sequence (whole entry): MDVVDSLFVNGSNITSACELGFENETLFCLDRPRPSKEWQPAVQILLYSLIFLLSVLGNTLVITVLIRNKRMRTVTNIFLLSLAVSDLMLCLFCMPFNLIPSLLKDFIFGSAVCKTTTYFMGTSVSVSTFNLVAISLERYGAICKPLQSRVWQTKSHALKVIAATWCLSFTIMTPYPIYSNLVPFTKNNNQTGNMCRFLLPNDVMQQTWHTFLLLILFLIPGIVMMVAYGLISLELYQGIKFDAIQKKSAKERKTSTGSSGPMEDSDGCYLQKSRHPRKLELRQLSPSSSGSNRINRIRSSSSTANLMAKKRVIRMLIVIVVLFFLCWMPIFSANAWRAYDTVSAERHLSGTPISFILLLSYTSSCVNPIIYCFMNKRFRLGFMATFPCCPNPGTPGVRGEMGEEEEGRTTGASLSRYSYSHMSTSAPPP

[4] = target: T1, Gastrin/cholecystokinin type B receptor; experiment: Binding affinity at human CCK2 receptor
[5] = target: T2, Cholecystokinin receptor type A; experiment: Binding affinity to human CCK1 receptor
[6] = target: T4, Cholecystokinin receptor type A (Cavia porcellus, UniProt Q63931); experiment: (§1) Agonist activity at CCK1 receptor assessed as stimulation of contraction in guinea pig gallbladder; format: functional
T4 sequence (Q63931 whole entry): T3 sequence (whole entry)

[7] = target: T5, Gastrin/cholecystokinin type B receptor (Rattus norvegicus) (UniProt P30553); experiment: Antagonist activity at CCK2 receptor in immature rat stomach assessed as pentagastrin-induced acid secretion at 1 uM; format: functional, tissue-based
T5 sequence (whole entry): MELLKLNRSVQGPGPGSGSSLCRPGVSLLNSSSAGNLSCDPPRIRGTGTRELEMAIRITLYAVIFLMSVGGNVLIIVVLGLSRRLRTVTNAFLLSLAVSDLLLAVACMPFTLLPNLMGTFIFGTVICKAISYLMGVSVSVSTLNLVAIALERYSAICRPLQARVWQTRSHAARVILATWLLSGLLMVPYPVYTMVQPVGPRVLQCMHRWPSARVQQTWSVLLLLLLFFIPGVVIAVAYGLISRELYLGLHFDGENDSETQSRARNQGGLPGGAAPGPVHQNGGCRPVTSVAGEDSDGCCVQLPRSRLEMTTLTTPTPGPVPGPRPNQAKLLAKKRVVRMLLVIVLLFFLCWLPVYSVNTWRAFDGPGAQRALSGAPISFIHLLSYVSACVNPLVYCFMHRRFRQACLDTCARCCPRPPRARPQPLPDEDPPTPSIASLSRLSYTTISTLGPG

[8] = target: T6, Gastrin/cholecystokinin type B receptor (Mus musculus, UniProt P56481); experiment: Binding affinity to mouse CCK2 receptor
T6 sequence (P56481 whole entry): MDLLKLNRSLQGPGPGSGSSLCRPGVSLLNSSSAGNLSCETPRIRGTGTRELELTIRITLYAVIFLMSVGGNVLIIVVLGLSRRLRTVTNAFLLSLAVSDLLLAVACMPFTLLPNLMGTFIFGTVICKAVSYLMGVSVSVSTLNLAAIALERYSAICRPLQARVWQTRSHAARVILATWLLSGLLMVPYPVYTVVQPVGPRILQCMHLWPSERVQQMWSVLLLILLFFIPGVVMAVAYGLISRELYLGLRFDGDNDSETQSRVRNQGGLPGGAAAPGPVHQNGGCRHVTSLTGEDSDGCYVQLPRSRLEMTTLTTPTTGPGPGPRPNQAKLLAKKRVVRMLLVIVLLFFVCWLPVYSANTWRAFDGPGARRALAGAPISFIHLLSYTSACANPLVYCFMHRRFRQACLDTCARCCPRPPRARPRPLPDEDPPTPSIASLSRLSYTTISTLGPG

[9] = target: T7, Cholecystokinin receptor type A (Mus musculus, UniProt O08786); experiment: Binding affinity to mouse CCK1 receptor
T7 sequence (O08786 whole entry): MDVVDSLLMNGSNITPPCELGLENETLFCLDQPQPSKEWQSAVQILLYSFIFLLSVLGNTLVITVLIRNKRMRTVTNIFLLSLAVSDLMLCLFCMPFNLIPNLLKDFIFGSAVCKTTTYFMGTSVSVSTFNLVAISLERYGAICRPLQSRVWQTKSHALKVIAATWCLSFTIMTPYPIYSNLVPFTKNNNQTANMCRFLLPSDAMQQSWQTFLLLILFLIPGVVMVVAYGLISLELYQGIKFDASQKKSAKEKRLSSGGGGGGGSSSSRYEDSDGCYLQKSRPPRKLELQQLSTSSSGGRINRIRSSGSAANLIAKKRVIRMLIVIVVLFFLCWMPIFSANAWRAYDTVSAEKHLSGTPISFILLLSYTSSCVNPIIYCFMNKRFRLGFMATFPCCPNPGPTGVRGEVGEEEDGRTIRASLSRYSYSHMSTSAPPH

[10] = target: T3, Cholecystokinin receptor type A (Cavia porcellus); experiment: as §1; format: functional

Row | SMILES | Ki [1] [nM] | Ki [2] [nM] | also measured
1 | CC(C)N(C(=O)CN1C(=O)C(NC(=O)Nc2ccccc2)C(=O)N(c2ccccc2)c2ccccc21)c1ccccc1 (centres undefined) | – | – | Activity [3]: 86%
2 | CC(C)(C)C(=O)CN1C(=O)N(CCCC(=O)Nc2cccc(-c3nc(=O)o[nH]3)c2)C(=O)N(C2CCCCC2)c2ccccc21 | 20.9 | 72.4 | –
3 | CC(C)(C)C(=O)CN1C(=O)N(CC(=O)Nc2cccc(C(=O)O)c2)N=C(C2CCCCC2)c2ccccc21 | – | – | Ki [4]: 1 nM; Ki [5]: 10000 nM
4 | CC(C)N(C(=O)CN1C(=O)C(CC(=O)Nc2ccccc2)C(=O)N(c2ccccc2)c2ccccc21)c1ccccc1 (centres undefined) | – | – | Ki [4]: 794 nM; Ki [5]: 158 nM; Activity [3]: 50%; EC50 [6]: 398 nM
5 | O=C(CN1C(=O)N(CC(=O)N2CCCC2)c2ccccc2N(c2ccccc2)C1=O)Nc1ccccc1 | 1000 | > 10000 | –
6 | CC(C)N(C(=O)CN1C(=O)C(NC(=O)Nc2cccc(C(=O)O)c2)C(=O)N(c2ccccc2)c2ccccc21)c1ccccc1 (centres undefined) | – | – | Ki [4]: 10 nM; Ki [5]: 126 nM; Activity [3]: 102%; EC50 [6]: 39.8 nM
7 | CNc1cccc(NC(=O)N[C@@H]2N=C(c3ccccn3)c3ccccc3N(CC(=O)C(C)(C)C)C2=O)c1 [NETAZEPIDE] | – | – | Ki [4]: 0.0794 nM; Ki [5]: 31.6 nM
8 | Cc1cccc(NC(=O)CN2C(=O)N(CC(=O)N3CCCC3)c3ccccc3N(C3CCCCCC3)C2=O)c1 | 23.4 | 617 | Activity [7]: inactive
9 | O=C(CN1C(=O)N(CC(=O)N2CCCC2)c2ccccc2N(c2ccccc2)C1=O)Nc1cccc(C(=O)O)c1 | 380 | > 10000 | –
10 | CC(C)(C)C(=O)CN1C(=O)N(CC(=O)Nc2cccc(-c3nc(=O)o[nH]3)c2)C(=O)N(C2CCCCC2)c2ccccc21 | 1.2 | 316 | –
11 | Cc1cccc(NC(=O)NC2C(=O)N(CC(=O)N3CCCC3)c3ccccc3N(CC(=O)N3CCCC3)C2=O)c1 | – | – | IC50 [8]: 50.1 nM; IC50 [9]: 794 nM
12 | CNc1cccc(NC(=O)CN2C(=O)N(CC(=O)C(C)(C)C)c3ccccc3N(C3CCCCC3)C2=O)c1 | 9.55 | 2340 | –
13 | CN(C(=O)CN1C(=O)C(NC(=O)Nc2ccccc2)C(=O)N(c2ccccc2)c2ccccc21)c1ccccc1 (centres undefined) | – | – | Activity [3]: inactive; pKb [10]: 6.3

Now from value to compound, other results behind:

Row | Ki [1] [nM] | Ki [2] [nM] | SMILES | also measured
14 | 0.891 | 282 | CC(C)(C)C(=O)CN1C(=O)N(CC(=O)Nc2cccc(SCC(=O)O)c2)C(=O)N(C2CCCCCC2)c2ccccc21 | –
15 | 0.427 | 117 | CC(C)(C)C(=O)CN1C(=O)N(CC(=O)Nc2cccc(-c3nc(=O)o[nH]3)c2)C(=O)N(C2CCCCCC2)c2ccccc21 | –
16 | 6.31 | 2340 | CC(C)(C)C(=O)CN1C(=O)N(CC(=O)Nc2cccc(CCC(=O)O)c2)C(=O)N(C2CCCCC2)c2ccccc21 | –
17 | 7.59 | 447 | Cc1cccc(NC(=O)CN2C(=O)N(CC(=O)C(C)(C)C)c3ccccc3N(C3CCCCCC3)C2=O)c1 | –
18 | 3.16 | 3890 | CC(C)(C)C(=O)CN1C(=O)N(CC(=O)Nc2cccc(CC(=O)O)c2)C(=O)N(C2CCCCCC2)c2ccccc21 | –
19 | 9.55 | 1550 | Cc1nc(-c2cccc(NC(=O)CN3C(=O)N(CC(=O)C(C)(C)C)c4ccccc4N(C4CCCCC4)C3=O)c2)cs1 | –
20 | 4.27 | 2090 | CN(c1cccc(NC(=O)CN2C(=O)N(CC(=O)C(C)(C)C)c3ccccc3N(C3CCCCC3)C2=O)c1)c1nn[nH]n1 | –
